This passage reports viability results from PMC11995724, “Antibiotic target discovery by integrated phenotypic and activity-based profiling of electrophilic fragments” (Cell chemical biology, 2025).

SMILES strings stand for the structures. Structures can show the parent of a compound that is named as a salt.

This data set is described as follows: in vitro. The settings on record: human, hek293t cells.
What is called viability is a read-out of living cells in per cent, often relative to untreated cells. On to `CC(Cl)C(=O)N1CCCC1c1cccc2c1OCCO2` (centres unmarked) [7-L11, 2-chloro-1-[2-(2,3-dihydro-1,4-benzodioxin-5-yl)pyrrolidin-1-yl]propan-1-one], for which the viability at 48 h, 25 µM was determined as 89.6%.

As for `CC1CCCN1C(=O)CNC(=O)CCl` (centres unmarked) [7-L12, 2-chloro-N-[2-(2-methylpyrrolidin-1-yl)-2-oxoethyl]acetamide], the viability at 48 h, 25 µM is 83.6%.

`CC(Cl)C(=O)N1CCC(C(=O)c2cccs2)CC1` (centres unmarked) [7-L13, 2-chloro-1-[4-(thiophene-2-carbonyl)piperidin-1-yl]propan-1-one]: the viability at 48 h, 25 µM is 86.7%.

Regarding `C[C@H](NC(=O)CCl)C(=O)N1CCCCC1` [7-L14, 2-chloro-N-[(2S)-1-oxo-1-(piperidin-1-yl)propan-2-yl]acetamide], the viability at 48 h, 25 µM is 70.1%.

`CC(Cl)C(=O)N1CCCN(c2ccc(-c3ccccc3)nn2)CC1` (centres unmarked) [7-L15, 2-chloro-1-[4-(6-phenylpyridazin-3-yl)-1,4-diazepan-1-yl]propan-1-one]: the viability at 48 h, 25 µM stood at 76.7%.

Consider `O=C(CCl)NC1Cc2ccccc2N(C(=O)C(F)(F)F)C1` (centres unmarked) [7-L16, 2-chloro-N-[1-(2,2,2-trifluoroacetyl)-1,2,3,4-tetrahydroquinolin-3-yl]acetamide], for which the viability at 48 h, 25 µM was determined as 0.649%.

As to `CC(Cl)C(=O)N(Cc1ccco1)C1CCN(C)CC1` (centres unmarked) [7-L17, 2-chloro-N-[(furan-2-yl)methyl]-N-(1-methylpiperidin-4-yl)propanamide], the viability at 48 h, 25 µM came to 101%.

In the case of `COc1ccccc1[C@H]1C[C@H](NC(=O)CCl)C1` [7-L18, 2-chloro-N-[(1r,3r)-3-(2-methoxyphenyl)cyclobutyl]acetamide], the viability at 48 h, 25 µM was 0.928%.

Regarding `CC(Cl)C(=O)NCc1nc(C2CC2)n[nH]1` (centres unmarked) [7-L19, 2-chloro-N-[(3-cyclopropyl-1H-1,2,4-triazol-5-yl)methyl]propanamide], the viability at 48 h, 25 µM was 91.3%.

Turning to `O=C(CCl)NCCc1ccn(C2CCCC2)n1` [7-L20, 2-chloro-N-[2-(1-cyclopentyl-1H-pyrazol-3-yl)ethyl]acetamide], the viability at 48 h, 25 µM came to 38.7%.

Consider `CC(NC(=O)CCl)c1nnc(-c2ccccc2F)s1` (centres unmarked) [7-L21, 2-chloro-N-{1-[5-(2-fluorophenyl)-1,3,4-thiadiazol-2-yl]ethyl}acetamide], for which the viability at 48 h, 25 µM turned out to be 0.564%.

Turning to `Cc1cc(CNC(=O)CCl)[nH]n1` [7-L22, 2-chloro-N-[(3-methyl-1H-pyrazol-5-yl)methyl]acetamide], the viability at 48 h, 25 µM worked out at 90.6%.

For the molecule `Cc1cnc(C(C)N2CCN(C(=O)C(C)Cl)CC2)s1` (centres unmarked) [7-M03, 2-chloro-1-{4-[1-(5-methyl-1,3-thiazol-2-yl)ethyl]piperazin-1-yl}propan-1-one], the viability at 48 h, 25 µM was found to be 97.5%.

Regarding `CC(Cl)C(=O)N(C)Cc1cn(C)nc1C(F)(F)F` (centres unmarked) [7-M04, 2-chloro-N-methyl-N-{[1-methyl-3-(trifluoromethyl)-1H-pyrazol-4-yl]methyl}propanamide], the viability at 48 h, 25 µM was found to be 91.6%.

For the molecule `CC(Cl)C(=O)NCC1CCCN(c2nccn3cnnc23)C1` (centres unmarked) [7-M05, 2-chloro-N-[(1-{[1,2,4]triazolo[4,3-a]pyrazin-8-yl}piperidin-3-yl)methyl]propanamide], the viability at 48 h, 25 µM is 102%.

Consider `CCc1nocc1CN(C)C(=O)C(C)Cl` (centres unmarked) [7-M06, 2-chloro-N-[(3-ethyl-1,2-oxazol-4-yl)methyl]-N-methylpropanamide], for which the viability at 48 h, 25 µM was determined as 95.1%.

In the case of `Cc1nnsc1CNC(=O)C(C)Cl` (centres unmarked) [7-M07, 2-chloro-N-[(4-methyl-1,2,3-thiadiazol-5-yl)methyl]propanamide], the viability at 48 h, 25 µM is 89%.

Regarding `CC(Cl)C(=O)NC(Cn1cncn1)c1ccccc1` (centres unmarked) [7-M09, 2-chloro-N-[1-phenyl-2-(1H-1,2,4-triazol-1-yl)ethyl]propanamide], the viability at 48 h, 25 µM was 90.3%.

Regarding `CC(Cl)C(=O)N1CC(c2cc(CO)on2)C1` (centres unmarked) [7-M10, 2-chloro-1-{3-[5-(hydroxymethyl)-1,2-oxazol-3-yl]azetidin-1-yl}propan-1-one], the viability at 48 h, 25 µM came out at 84.9%.

As for `CC(Cl)C(=O)NCCCN1CCc2ccccc2C1` (centres unmarked) [7-M11, 2-chloro-N-[3-(1,2,3,4-tetrahydroisoquinolin-2-yl)propyl]propanamide], the viability at 48 h, 25 µM came out at 88.4%.

`Cc1cccc2nc(C3CCN(C(=O)C(C)Cl)CC3)oc12` (centres unmarked) [7-M12, 2-chloro-1-[4-(7-methyl-1,3-benzoxazol-2-yl)piperidin-1-yl]propan-1-one]: the viability at 48 h, 25 µM came to 79.6%.

Regarding `CC(Cl)C(=O)NCc1cnn2ccccc12` (centres unmarked) [7-M13, 2-chloro-N-({pyrazolo[1,5-a]pyridin-3-yl}methyl)propanamide], the viability at 48 h, 25 µM came out at 104%.

With `CC(Cl)C(=O)N(C)C1CS(=O)(=O)c2ccc(Cl)cc21` (centres unmarked) [7-M14, 2-chloro-N-(5-chloro-1,1-dioxo-2,3-dihydro-1lambda6-benzothiophen-3-yl)-N-methylpropanamide], the viability at 48 h, 25 µM is 73%.

`CC(Cl)C(=O)N1CC(S(=O)(=O)c2ccccc2F)C1` (centres unmarked) [7-M15, 2-chloro-1-[3-(2-fluorobenzenesulfonyl)azetidin-1-yl]propan-1-one]: the viability at 48 h, 25 µM was 96.3%.

Regarding `CC(Cl)C(=O)N1CCCC(c2cnn(C)c2)C1` (centres unmarked) [7-M16, 2-chloro-1-[3-(1-methyl-1H-pyrazol-4-yl)piperidin-1-yl]propan-1-one], the viability at 48 h, 25 µM turned out to be 82%.

In the case of `CC(Cl)C(=O)NC(c1cccc(C(F)(F)F)c1)c1nnc[nH]1` (centres unmarked) [7-M17, 2-chloro-N-[(4H-1,2,4-triazol-3-yl)[3-(trifluoromethyl)phenyl]methyl]propanamide], the viability at 48 h, 25 µM is 75.1%.

Take `CC(Cl)C(=O)NCCc1cnc2c(Cl)cnn2c1` (centres unmarked) [7-M18, 2-chloro-N-(2-{3-chloropyrazolo[1,5-a]pyrimidin-6-yl}ethyl)propanamide]: the viability at 48 h, 25 µM was 90.6%.

As to `Cc1cc(NC(=O)CN(C)C(=O)C(C)Cl)no1` (centres unmarked) [7-M19, 2-chloro-N-methyl-N-{[(5-methyl-1,2-oxazol-3-yl)carbamoyl]methyl}propanamide], the viability at 48 h, 25 µM worked out at 79.5%.

For the molecule `COCc1ncc2c(n1)CC1CCC2N1C(=O)C(C)Cl` (centres unmarked) [7-M20, 2-chloro-1-[5-(methoxymethyl)-4,6,12-triazatricyclo[7.2.1.0,2,7]dodeca-2,4,6-trien-12-yl]propan-1-one], the viability at 48 h, 25 µM amounted to 77%.

Consider `CC(Cl)C(=O)NC(C)C(=O)N1CCc2ccccc21` (centres unmarked) [7-M21, 2-chloro-N-[1-(2,3-dihydro-1H-indol-1-yl)-1-oxopropan-2-yl]propanamide], for which the viability at 48 h, 25 µM was found to be 84.1%.

Take `CC(NC(=O)CCl)c1nc2c(s1)CCCCC2` (centres unmarked) [7-M22, 2-chloro-N-(1-{4H,5H,6H,7H,8H-cyclohepta[d][1,3]thiazol-2-yl}ethyl)acetamide]: the viability at 48 h, 25 µM came out at 0.506%.

Take `O=C(CCl)NC(Cn1cncn1)c1ccccc1` (centres unmarked) [7-N03, 2-chloro-N-[1-phenyl-2-(1H-1,2,4-triazol-1-yl)ethyl]acetamide]: the viability at 48 h, 25 µM was found to be 0.644%.

`N#Cc1cccc(C(NC(=O)CCl)C(F)(F)F)c1` (centres unmarked) [7-N04, 2-chloro-N-[1-(3-cyanophenyl)-2,2,2-trifluoroethyl]acetamide]: the viability at 48 h, 25 µM was found to be 0.24%.

For the molecule `CC(Cl)C(=O)N1CCN(Cc2nnnn2-c2ccccc2)CC1` (centres unmarked) [7-N05, 2-chloro-1-{4-[(1-phenyl-1H-1,2,3,4-tetrazol-5-yl)methyl]piperazin-1-yl}propan-1-one], the viability at 48 h, 25 µM amounted to 97.8%.

As to `COc1ccc(Cl)cc1C(O)CNC(=O)CCl` (centres unmarked) [7-N06, 2-chloro-N-[2-(5-chloro-2-methoxyphenyl)-2-hydroxyethyl]acetamide], the viability at 48 h, 25 µM is 0.942%.

As for `CC(Cl)C(=O)N1CCCN(C(=O)c2cc(Cl)cn2C)CC1` (centres unmarked) [7-N07, 2-chloro-1-[4-(4-chloro-1-methyl-1H-pyrrole-2-carbonyl)-1,4-diazepan-1-yl]propan-1-one], the viability at 48 h, 25 µM was 94.5%.

For `O=C(CCl)NCCCC(=O)N1CCCC1` [7-N08, 2-chloro-N-[4-oxo-4-(pyrrolidin-1-yl)butyl]acetamide], the viability at 48 h, 25 µM turned out to be 93.6%.

In the case of `O=C(CCl)NC(Cc1ccccc1)c1ccccc1F` (centres unmarked) [7-N10, 2-chloro-N-[1-(2-fluorophenyl)-2-phenylethyl]acetamide], the viability at 48 h, 25 µM turned out to be 0.701%.

Regarding `CC(Cl)C(=O)NCC(=O)Nc1ccc2c[nH]nc2c1` (centres unmarked) [7-N11, 2-chloro-N-{[(2H-indazol-6-yl)carbamoyl]methyl}propanamide], the viability at 48 h, 25 µM was 97%.

Turning to `O=C(CCl)NCc1ccccc1SC(F)(F)F` [7-N12, 2-chloro-N-({2-[(trifluoromethyl)sulfanyl]phenyl}methyl)acetamide], the viability at 48 h, 25 µM was 0.794%.

For the molecule `Cc1ccc(C(CNC(=O)C(C)Cl)N2CCOCC2)s1` (centres unmarked) [7-N13, 2-chloro-N-[2-(5-methylthiophen-2-yl)-2-(morpholin-4-yl)ethyl]propanamide], the viability at 48 h, 25 µM stood at 108%.

Take `O=C(CCl)NC1c2ccccc2CCC1n1ccnc1` (centres unmarked) [7-N14, 2-chloro-N-[2-(1H-imidazol-1-yl)-1,2,3,4-tetrahydronaphthalen-1-yl]acetamide hydrochloride]: the viability at 48 h, 25 µM came to 95.8%.

As for `CNC(=O)c1ccc(C2CCCCN2C(=O)C(C)Cl)n1C` (centres unmarked) [7-N15, 5-[1-(2-chloropropanoyl)piperidin-2-yl]-N,1-dimethyl-1H-pyrrole-2-carboxamide], the viability at 48 h, 25 µM amounted to 97.6%.

As to `CC(NC(=O)CCl)C(=O)N1c2ccccc2CC1C` (centres unmarked) [7-N16, 2-chloro-N-[1-(2-methyl-2,3-dihydro-1H-indol-1-yl)-1-oxopropan-2-yl]acetamide], the viability at 48 h, 25 µM was 0.726%.

As for `CCc1nc2c(s1)C(N(C)C(=O)C(C)Cl)CCC2` (centres unmarked) [7-N17, 2-chloro-N-(2-ethyl-4,5,6,7-tetrahydro-1,3-benzothiazol-7-yl)-N-methylpropanamide], the viability at 48 h, 25 µM turned out to be 84.1%.

Regarding `O=C(CCl)NCC1CCCN(C(=O)C(F)(F)F)C1` (centres unmarked) [7-N18, 2-chloro-N-{[1-(2,2,2-trifluoroacetyl)piperidin-3-yl]methyl}acetamide], the viability at 48 h, 25 µM turned out to be 0.898%.

With `CC(Cl)C(=O)NC1Cc2ccccc2N(C(=O)C(F)(F)F)C1` (centres unmarked) [7-N19, 2-chloro-N-[1-(2,2,2-trifluoroacetyl)-1,2,3,4-tetrahydroquinolin-3-yl]propanamide], the viability at 48 h, 25 µM was 87.1%.
